Assay results published in ChEMBL document CHEMBL3751753, “Synthesis and biological evaluation of 4-[(benzimidazol-1-yl) methyl]biphenyl-2-amides as dual angiotensin II and endothelin A receptor antagonists” (Medchemcomm, 2015).
Calls of active or inactive are those of the source. No cut-off for these calls is given here.

Key:
[1] = biological target: T1, Type-1 angiotensin II receptor (Homo sapiens, UniProt P30556); experiment: Displacement of 125I-labelled Sar1-Ile8-angiotensin-2 from human AT1 receptor
T1 sequence (P30556 whole entry): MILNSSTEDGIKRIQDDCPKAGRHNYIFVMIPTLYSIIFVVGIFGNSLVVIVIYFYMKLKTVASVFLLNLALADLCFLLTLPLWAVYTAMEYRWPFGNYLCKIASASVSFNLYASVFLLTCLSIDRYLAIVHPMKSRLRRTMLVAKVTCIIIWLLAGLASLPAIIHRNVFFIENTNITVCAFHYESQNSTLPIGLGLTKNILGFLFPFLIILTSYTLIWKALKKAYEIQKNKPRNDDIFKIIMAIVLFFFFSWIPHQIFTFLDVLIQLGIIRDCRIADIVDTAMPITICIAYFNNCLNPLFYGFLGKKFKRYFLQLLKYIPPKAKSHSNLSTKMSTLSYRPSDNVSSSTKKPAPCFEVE

Endothelin-1 receptor = biological target: T2, Endothelin-1 receptor (Homo sapiens, UniProt P25101); experiment: Displacement of 125I-labelled endothelin-1 from human ETA receptor expressed in CHOK1 cell membranes; design: species or system CHO-K1
T2 sequence (P25101 whole entry): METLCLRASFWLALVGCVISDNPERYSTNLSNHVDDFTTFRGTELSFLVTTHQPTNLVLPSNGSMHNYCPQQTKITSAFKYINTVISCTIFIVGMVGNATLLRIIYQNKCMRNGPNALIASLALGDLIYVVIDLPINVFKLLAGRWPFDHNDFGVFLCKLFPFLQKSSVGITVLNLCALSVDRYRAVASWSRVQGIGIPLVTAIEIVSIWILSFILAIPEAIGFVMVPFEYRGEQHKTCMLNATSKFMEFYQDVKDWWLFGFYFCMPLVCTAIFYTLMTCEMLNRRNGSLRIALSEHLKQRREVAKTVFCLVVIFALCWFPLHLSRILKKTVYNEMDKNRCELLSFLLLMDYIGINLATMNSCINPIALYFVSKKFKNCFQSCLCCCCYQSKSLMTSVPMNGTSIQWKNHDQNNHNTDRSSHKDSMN

Rattus norvegicus [2] = experiment: Antihypertensive activity in spontaneous hypertensive rat assessed as mean blood pressure at 20 mg/kg, po after 6 hrs; assay type: functional
Rattus norvegicus [3] = experiment: Antihypertensive activity in spontaneous hypertensive rat assessed as heart rate at 20 mg/kg, po after 1 to 24 hrs; assay type: functional, organism-based
Rattus norvegicus [4] = experiment: Antihypertensive activity in spontaneous hypertensive rat assessed as mean blood pressure at 20 mg/kg, po after 24 hrs; assay type: functional, organism-based
Rattus norvegicus [5] = experiment: Antihypertensive activity in spontaneous hypertensive rat assessed as time duration of lowering mean blood pressure >20 mmHg at 20 mg/kg, po; assay type: functional
Rattus norvegicus [6] = experiment: Antihypertensive activity in spontaneous hypertensive rat assessed as mean blood pressure at 20 mg/kg, po after 4 hrs; assay type: functional

Row | SMILES | IC50 [1] | IC50 (Endothelin-1 receptor) | further results
1 | CCCc1nc2c(C)cc(C(=O)Nc3ccccc3)cc2n1Cc1ccc(-c2ccccc2C(=O)Nc2nnn[nH]2)cc1 | 73.7 nM | 14000 nM | –
2 | CCCc1nc2c(C)cc(C(=O)NC(C)C)cc2n1Cc1ccc(-c2ccccc2C(=O)Nc2nnn[nH]2)cc1 | 161 nM | > 20000 nM | –
3 | CCCc1nc2c(C)cc(C(=O)NCCc3ccc(F)cc3)cc2n1Cc1ccc(-c2ccccc2C(=O)Nc2nnn[nH]2)cc1 | 140 nM | > 20000 nM | –
4 | CCCc1nc2c(C)cc(C(=O)NCCc3ccccc3OC)cc2n1Cc1ccc(-c2ccccc2C(=O)Nc2nnn[nH]2)cc1 | 26.1 nM | 7000 nM | –
5 | CCCc1nc2c(C)cc(C(=O)NCCc3ccccc3F)cc2n1Cc1ccc(-c2ccccc2C(=O)Nc2nnn[nH]2)cc1 | 90 nM | 11000 nM | –
6 | CCCc1nc2c(C)cc(C(=O)NCCc3cccc(OC)c3)cc2n1Cc1ccc(-c2ccccc2C(=O)Nc2nnn[nH]2)cc1 | 36.9 nM | > 20000 nM | –
7 | CCCc1nc2c(C)cc(C(=O)NCCN3CCOCC3)cc2n1Cc1ccc(-c2ccccc2C(=O)Nc2nnn[nH]2)cc1 | 44 nM | 165 nM | –
8 | CCCc1nc2c(C)cc(C(=O)NCCc3ccccc3)cc2n1Cc1ccc(-c2ccccc2C(=O)Nc2nnn[nH]2)cc1 | 3.9 nM | 126 nM | Activity (Rattus norvegicus [2]): 24 mmHg; Activity (Rattus norvegicus [3]): Active; Activity (Rattus norvegicus [4]): Active; Time (Rattus norvegicus [5]): 4 h
9 | CCCc1nc2c(C)cc(C(=O)NCc3ccccc3)cc2n1Cc1ccc(-c2ccccc2C(=O)Nc2nnn[nH]2)cc1 | 82 nM | 10 nM | –
10 | CCCc1nc2c(C)cc(C(=O)NCc3ccccc3OC)cc2n1Cc1ccc(-c2ccccc2C(=O)Nc2nnn[nH]2)cc1 | 73.3 nM | 7200 nM | –
11 | CCCc1nc2c(C)cc(C(=O)NCCN3CCCCC3)cc2n1Cc1ccc(-c2ccccc2C(=O)Nc2nnn[nH]2)cc1 | 67.5 nM | > 20000 nM | –
12 | CCCc1nc2c(C)cc(C(=O)NC(C)(C)C)cc2n1Cc1ccc(-c2ccccc2C(=O)Nc2nnn[nH]2)cc1 | 390 nM | > 20000 nM | –
13 | CCCc1nc2c(C)cc(C(=O)NCc3cccc(OC)c3)cc2n1Cc1ccc(-c2ccccc2C(=O)Nc2nnn[nH]2)cc1 | 53.9 nM | 625 nM | –
14 | CCCNC(=O)c1cc(C)c2nc(CCC)n(Cc3ccc(-c4ccccc4C(=O)Nc4nnn[nH]4)cc3)c2c1 | 363 nM | > 20000 nM | –
15 | CCCc1nc2c(C)cc(C(=O)NCc3ccc(OC)c(OC)c3)cc2n1Cc1ccc(-c2ccccc2C(=O)Nc2nnn[nH]2)cc1 | 32.9 nM | 10000 nM | –
16 | CCCc1nc2c(C)cc(C(=O)NCCc3cc(OC)ccc3OC)cc2n1Cc1ccc(-c2ccccc2C(=O)Nc2nnn[nH]2)cc1 | 30.7 nM | > 20000 nM | –
17 | CCCCC1=NC2(CCCC2)C(=O)N1Cc1ccc(-c2ccccc2-c2nnn[nH]2)cc1 [IRBESARTAN] | – | – | Activity (Rattus norvegicus [3]): Active; Activity (Rattus norvegicus [6]): 20 mmHg; Activity (Rattus norvegicus [4]): Active; Time (Rattus norvegicus [5]): 1 h
18 | CCCc1nc2c(C)cc(C(=O)Nc3ccccc3OC)cc2n1Cc1ccc(-c2ccccc2C(=O)Nc2nnn[nH]2)cc1 | 347 nM | 886 nM | –
19 | CCCCNC(=O)c1cc(C)c2nc(CCC)n(Cc3ccc(-c4ccccc4C(=O)Nc4nnn[nH]4)cc3)c2c1 | 439 nM | > 20000 nM | –
20 | CCCc1nc2c(C)cc(C(=O)NCCN3CCN(C)CC3)cc2n1Cc1ccc(-c2ccccc2C(=O)Nc2nnn[nH]2)cc1 | 53.5 nM | 9100 nM | –
21 | CCCc1nc2c(C)cc(C(=O)NCc3ccc(OC)cc3)cc2n1Cc1ccc(-c2ccccc2C(=O)Nc2nnn[nH]2)cc1 | 550 nM | > 20000 nM | –
22 | CCCc1nc2c(C)cc(C(=O)NCCN3CCCC3)cc2n1Cc1ccc(-c2ccccc2C(=O)Nc2nnn[nH]2)cc1 | 69.4 nM | 7100 nM | –
23 | CCCc1nc2c(C)cc(C(=O)NCCc3ccc(OC)cc3)cc2n1Cc1ccc(-c2ccccc2C(=O)Nc2nnn[nH]2)cc1 | 87.8 nM | 13000 nM | –
24 | CCCc1nc2c(C)cc(C(=O)NCCc3ccc(OC)c(OC)c3)cc2n1Cc1ccc(-c2ccccc2C(=O)Nc2nnn[nH]2)cc1 | 93 nM | > 20000 nM | –
